Test results from PubChem BioAssay (NCI).
“And” between values parts separate entries of the source, which are not always exact repeats. Identical values can stand only once.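 Method: 48-hour compound exposure of cells in 96-well plates, five concentrations, linear interpolation of endpoints. Here, GI50 denotes the concentration required for 50% inhibition of growth. The concentration for full growth arrest is given as TGI.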

Test system: HOP-92 NSCLC
Assay: DTP human tumour cell line panel, 48 h

Structure (SMILES)	TGI [µM]	GI50
COc1ccc(/C=C/c2cnccn2)cc1OC	> 10	–
O=C1CC2CCN(C(=O)c3ccccc3)CC2CCN1 (stereo unspecified)	> 100	–
N#CC(C#N)=C1CCCOc2c1ccc1ccccc21	71.7	15.8 µM
O=C1C=CC(=CC=C2C=CN(CCCCCCCCCCC(=O)NCCCCCCCCCCCC(=O)O)C=C2)C=C1	> 100	–
COc1cc2c3c(n(CCCN(C)CCO)c(=O)c2cc1OC)-c1cc2c(cc1C3=O)OCO2	35.1	2.82 µM
N#Cc1c(-c2ccco2)cc(-c2ccc(N)cc2)[nH]c1=O	> 100	–
CNC(C)[C@H]1CCC2C3CC=C4C(=O)[C@@H](NC(=O)C=C(C)C)CC[C@]4(C)C3CC[C@@]21C (stereo partly specified)	10.3	0.977 µM
C=CCC1(C)CCCCC1(O)CS(=O)c1ccccc1 (stereo unspecified)	> 100	–
C1COCCSC2=C(SCCO1)SC(=C1SC3=C(SCCOCCOCCS3)S1)S2	> 100	–
COc1cc(C(=O)O[C@H](C(N)=O)[C@]2(C)CO2)c2cccc(C)c2c1	2.28	0.654 µM
COc1cc(/C=N\O[Si](C)(C)C(C)(C)C)ccc1O[Si](C)(C)C(C)(C)C	60.1	–
CC12CCC(=O)N1c1cccnc1N2 (stereo unspecified)	> 100	–
COc1cc2c(cc1OC)C1Cc3cc(OC)c(OC)cc3N1CC2 (stereo unspecified)	> 100	–
NCCCOc1cc(Cl)ccc1NC(=O)c1cc2ccccc2cc1OCCCN	2.85	1.32 µM
C=C1C(=O)OC2C1CC(OC(C)=O)/C(C)=C/CCC1(C)OC21 (stereo unspecified)	> 100	–
COc1cc(/C=C/C(=O)C(C(=O)/C=C/c2ccc(OC(=O)CCNC34CC5CC(CC(C5)C3)C4)c(OC)c2)C(=O)CCNC23CC4CC(CC(C4)C2)C3)ccc1OC(=O)CCNC12CC3CC(CC(C3)C1)C2 (stereo unspecified)	31.4	4.75 µM
O=C1C2[C@@H](C(=O)N1c1ccc(Br)cc1)C13C(=CC2([N+](=O)[O-])[C@@H]2C(=O)N(c4ccc(Br)cc4)C(=O)[C@@H]21)c1ccccc1N3c1ccccc1 (stereo partly specified)	> 100	–
O=C1/C(=C/N2N=C(c3ccc4ccccc4c3)CC2c2ccccc2O)SC(=S)N1c1cccnc1 (stereo unspecified)	> 100	5.2 µM
CCOC(=O)C1=C(Nc2ccc(Br)cc2)OCC1=O	> 100	–
CCOc1ccc(N=Cc2c3ccccc3nc3ccccc23)cc1	> 100	–
Nc1ccc(C2=N/C(=C\c3cccc(N)c3)C(=O)O2)cc1	> 100	–
NCCN.O=C([O-])[O-].O=C([O-])[O-].[Co+3].[K+]	> 100	49.4 µM and 75.2 µM
C1=NC(N(Cc2ccccc2)Cc2ccccc2)N(Cc2ccccc2)N1 (stereo unspecified)	25.6	–
NC(=O)CNc1ccc([As]=[As]c2ccc(NCC(N)=O)cc2)cc1 (stereo unspecified)	15.1	1.63 µM

Test system: NCI/ADR-RES ovarian
Assay: DTP human tumour cell line panel, 48 h

Structure (SMILES)	TGI [µM]	GI50 [µM]
COC(=O)C(=O)CC(=O)c1cccc(OC)c1	> 100	–
Cn1cc(S(=O)(=O)N2CCC3=Cc4c(cnn4-c4ccc(F)cc4)C[C@]3(C(=O)c3cc(C(F)(F)F)ccn3)C2)cn1	> 100	> 100
COc1cc(/C=C/C(=O)Oc2ccccc2)ccc1C(=O)O/C=C/c1ccccc1	> 100	–
CC(Cl)CN1c2ccccc2Sc2ccc(Cl)cc21 (stereo unspecified)	> 10	–
COc1ccc(/C=C/c2cnccn2)cc1OC	> 10	–
N#CC(C#N)=C1CCCOc2c1ccc1ccccc21	> 100	> 100
COc1cc2c3c(n(CCCN(C)CCO)c(=O)c2cc1OC)-c1cc2c(cc1C3=O)OCO2	31.5	3.21
CNC(C)[C@H]1CCC2C3CC=C4C(=O)[C@@H](NC(=O)C=C(C)C)CC[C@]4(C)C3CC[C@@]21C (stereo partly specified)	15	3.44
COc1cc(C(=O)O[C@H](C(N)=O)[C@]2(C)CO2)c2cccc(C)c2c1	0.507	0.108
NCCCOc1cc(Cl)ccc1NC(=O)c1cc2ccccc2cc1OCCCN	4.25	1.97
C=C1C(=O)OC2C1CC(OC(C)=O)/C(C)=C/CCC1(C)OC21 (stereo unspecified)	> 100	–
COc1cc(/C=C/C(=O)C(C(=O)/C=C/c2ccc(OC(=O)CCNC34CC5CC(CC(C5)C3)C4)c(OC)c2)C(=O)CCNC23CC4CC(CC(C4)C2)C3)ccc1OC(=O)CCNC12CC3CC(CC(C3)C1)C2 (stereo unspecified)	90.2	4.82
O=C1/C(=C/N2N=C(c3ccc4ccccc4c3)CC2c2ccccc2O)SC(=S)N1c1cccnc1 (stereo unspecified)	> 100	3.43
NC(=O)CNc1ccc([As]=[As]c2ccc(NCC(N)=O)cc2)cc1 (stereo unspecified)	> 100	9.13

Test system: NCI-H460 lung
Assay: DTP human tumour cell line panel, 48 h

Structure (SMILES)	TGI [µM]	GI50 [µM]
CCc1cccc(C)c1NC(=O)CC1C(=O)Nc2ccccc2S1=O (stereo unspecified)	> 100	–
Cc1ccc(N2C(=O)N(c3ccc(C)cc3)C3(SC=NN3C)C2=O)cc1 (stereo unspecified)	> 100	–
O=C1c2ccc3c4ccccc4n(-c4ccccc4)c3c2C(=O)N1c1ccc(Cl)cc1	> 100	–
CCC[CH2][Sn]1([CH2]CCC)[O]CC(COc2c(Cl)cc(Cl)cc2Cl)[O]1 (stereo unspecified)	7.98	2.67
NC(CCc1ncc(C(=O)O)s1)C(=O)O (stereo unspecified)	> 100	–
CSc1ccc2c(cc1=O)[C@@H](NC(=O)c1cc(O)c(O)c(O)c1)CCc1cc(O)c(O)c(O)c1-2	44.3	–
COC(=O)C(=O)CC(=O)c1cccc(OC)c1	> 100	–
COc1cc(-c2nnc3n2NC=C(C(=O)O)S3)cc(OC)c1OC	> 100	–
Cn1cc(S(=O)(=O)N2CCC3=Cc4c(cnn4-c4ccc(F)cc4)C[C@]3(C(=O)c3cc(C(F)(F)F)ccn3)C2)cn1	> 100	> 100
C[P+](C)(C)c1ccccc1	> 100	–
O=C1c2ccccc2C(=O)N1C/C=N/NS(=O)(=O)c1ccc(Br)cc1	> 100	–
COc1cc(/C=C/C(=O)Oc2ccccc2)ccc1C(=O)O/C=C/c1ccccc1	> 100	–
CC(Cl)CN1c2ccccc2Sc2ccc(Cl)cc21 (stereo unspecified)	> 10	–
NC(=O)c1cn(Cc2ccccc2)c(=O)n1Cc1ccccc1	> 100	–
CCOC(=O)C(C)(c1c(C)[nH]c2ccccc12)c1c(C)[nH]c2ccccc12	38.7	–
Cc1c(Cl)cccc1NC(=O)c1cccc([N+](=O)[O-])c1O	43.3	–
CC1COS(=O)O1 (stereo unspecified)	> 100	–
CC1CCC(C(C)(C)c2ccccc2)C(=O)C1 (stereo unspecified)	> 100	–

Structure (SMILES)	TGI [µM]	GI50 [µM]
COc1ccc(/C=C/c2cnccn2)cc1OC	> 10	–
O=C1CC2CCN(C(=O)c3ccccc3)CC2CCN1 (stereo unspecified)	> 100	–
N#CC(C#N)=C1CCCOc2c1ccc1ccccc21	> 100	> 100
O=C1C=CC(=CC=C2C=CN(CCCCCCCCCCC(=O)NCCCCCCCCCCCC(=O)O)C=C2)C=C1	> 100	–
COc1cc2c3c(n(CCCN(C)CCO)c(=O)c2cc1OC)-c1cc2c(cc1C3=O)OCO2	> 100	1.89
N#Cc1c(-c2ccco2)cc(-c2ccc(N)cc2)[nH]c1=O	> 100	–
CNC(C)[C@H]1CCC2C3CC=C4C(=O)[C@@H](NC(=O)C=C(C)C)CC[C@]4(C)C3CC[C@@]21C (stereo partly specified)	2.76	1.26
C=CCC1(C)CCCCC1(O)CS(=O)c1ccccc1 (stereo unspecified)	> 100	–
C1COCCSC2=C(SCCO1)SC(=C1SC3=C(SCCOCCOCCS3)S1)S2	> 100	–
COc1cc(C(=O)O[C@H](C(N)=O)[C@]2(C)CO2)c2cccc(C)c2c1	> 32.1	0.395
COc1cc(/C=N\O[Si](C)(C)C(C)(C)C)ccc1O[Si](C)(C)C(C)(C)C	> 100	–
CC12CCC(=O)N1c1cccnc1N2 (stereo unspecified)	> 100	–
COc1cc2c(cc1OC)C1Cc3cc(OC)c(OC)cc3N1CC2 (stereo unspecified)	> 100	–
NCCCOc1cc(Cl)ccc1NC(=O)c1cc2ccccc2cc1OCCCN	3.21	1.68
C=C1C(=O)OC2C1CC(OC(C)=O)/C(C)=C/CCC1(C)OC21 (stereo unspecified)	> 100	–
COc1cc(/C=C/C(=O)C(C(=O)/C=C/c2ccc(OC(=O)CCNC34CC5CC(CC(C5)C3)C4)c(OC)c2)C(=O)CCNC23CC4CC(CC(C4)C2)C3)ccc1OC(=O)CCNC12CC3CC(CC(C3)C1)C2 (stereo unspecified)	10.2	2.98
O=C1/C(=C/N2N=C(c3ccc4ccccc4c3)CC2c2ccccc2O)SC(=S)N1c1cccnc1 (stereo unspecified)	> 100	0.514
CCOC(=O)C1=C(Nc2ccc(Br)cc2)OCC1=O	> 100	–
